Measurements as given in patent US20190365744A1, “IMPROVED MULTI TYROSINE KINASE INHIBITOR THERAPY” (FRAUNHOFER-GESELLSCHAFT ZUR FORDERUNG DER ANGEWANDTEN …, priority 2017, published 2019).

Test system: CXCR4
Test: CXCR4 PET/CT with tracer 68Ga-Pentixafor in patients with idiopathic pulmonary fibrosis, prior to and under therapy
Type: in vivo, human
Conditions: for CXCR4 signal (PET/CT): patients with idiopathic pulmonary fibrosis, after onset of therapy vs prior to therapy, 68Ga-Pentixafor tracer
Description: Patients were diagnosed with clinical idiopathic pulmonary fibrosis according to diagnostic criteria of the American Thoracic Society/European Respiratory Society.
Pentixafor synthesis. Material for synthesis of ^68Ga-pentixafor (CPCR4.2) was provided by Scintomics (Fürstenfeldbruck, Germany) Synthesis was performed as previously described (18, 19), using a ^68Ge/^68Ga-generator (Eckert&Ziegler, Braunschweig, Germany) connected to a Scintomics GRP synthesis module.
Clinical Imaging. All studies were obtained on a dedicated PET/CT system (Biograph mCT 128 Flow; Siemens, Knoxville, USA), equipped with an extended field-of-view LSO PET component, a 128-slice spiral CT component, and a magnetically driven table optimized for continuous scanning The patients received an intravenous injection of 110 (IQR, 80-120) MBq of ^68Ga-pentixafor. Imaging started with a low-dose non-enhanced helical CT (120 kV, mA modulated, pitch 1.2, reconstructed axial slice thickness 5.0 mm) performed for attenuation correction of PET acquisitions. PET images of the whole body were then acquired using continuous bed motion (CBM) at a speed of 2.0 mm/s for head and neck and 0.5 mm/s for chest and abdomen at 60 min post injection. All studies were reconstructed using time-of-flight and point-spread function information combined with an iterative algorithm (Ultra HD®, Siemens Healthcare; 2 iterations, 21 subsets, matrix 200; zoom 1.0; Gaussian filter of 5.0). In addition, a non-contrast breath-hold high-resolution CT (HRCT) (120 kV, mA modulated) of the chest was used to obtain contiguous 1.0-mm cross-sectional slices throughout the thorax.
PET/CT image analysis. Transaxial PET, CT and fused PET/CT 68Ga-pentixafor PET/CT images were analyzed on a dedicated workstation equipped with a commercial software package (syngo.via; Siemens Healthcare).
PET images were visually evaluated for the presence of elevated radiotracer uptake in lung parenchyma in areas of usual interstitial pneumonia (UIP) pattern on CT. Then, ^68Ga-Pentixafor uptake was quantified using a 3D Volume-of-Interest (VOI) technique with isocontour thresholding, yielding mean and peak standardized uptake values (SUVmean and SUVpeak). Separate measurements were performed in three subpleural regions in each lung lobe, and values for each region were then averaged for the subsequent statistical analysis. Tracer uptake in mediastinal and hilar lymph nodes was assessed in three thoracic lymph node stations using 3D VOIs with isocontour thresholding, and also averaged for the subsequent statistical analysis. In addition, tracer uptake (SUVmean) in spleen and bone marrow was […], recorded to evaluate systemic interactions.
Patients suffering from idiopathic pulmonary fibrosis were investigated for CXCR4 abundance by PET/CT using a CXCR4 tracer ^68Ga-Pentixafor as described.
The mean signal intensities (SUVmean) were determined in different regions, i.e. upper-, middle and lower fields. The volume of CXCR4-positive areas were determined and put into relation to the total volume of the respective areas. The extent of the fibrotic areas were judged in PET/CT and the SUVmean was determined for mediastinal lymph nodes, spleen and bone marrow.

| Structure (SMILES) | signal intensities for CXCR4 (cohort of 12 patients with idiopathic pulmonary fibrosis under treatment vs baseline) | strong increase of CXCR4 signal in pulmonary fibrotic areas (patients with idiopathic pulmonary fibrosis under treatment) | CXCR4 signal, single further patient (one of 5 analyzed patients under treatment) | CXCR4 signal intensity, single patient with familial idiopathic pulmonary fibrosis (one of 5 analyzed patients, unclear whether drug was taken on the day of investigation) | CXCR4 signal (PET/CT) | CXCR4 signal (PET/CT) (listed as Nitedanib) | patients showing a strong increase in CXCR4 signal intensity in the fibrotic areas in the lung (under treatment, these patients received 150 mg in the morning of the PET/CT day) |
| --- | --- | --- | --- | --- | --- | --- | --- |
| Cc1ccc(=O)n(-c2ccccc2)c1 [Pirfenidone] | remained constant or even decreased | not observed |  |  |  |  |  |
| COC(=O)c1ccc2c(c1)NC(=O)/C2=C(\Nc1ccc(N(C)C(=O)CN2CCN(C)CC2)cc1)c1ccccc1 [Nintedanib] |  |  | constant | decrease | increase | significant increase | 3 out of 5 |
